Data taken from PMC10006169, “A phase I trial of LXS196, a protein kinase C (PKC) inhibitor, for metastatic uveal melanoma” (British Journal of Cancer, 2023).

Test system: patients with MUM
Test: Adverse events regardless of study drug relationship
Format: in vivo, human
Description: Routine safety assessments, including laboratory assessments, physical examinations, vital signs and electrocardiograms (ECGs), were conducted at regular intervals throughout the study and more frequently as needed following patient assessment by the treating physician. Adverse events (AEs) were assessed continuously according to the National Cancer Institute Common Terminology Criteria for Adverse Events (NCI-CTCAE) v4.03.

CC1(N)CCN(c2cccnc2NC(=O)c2nc(-c3ncccc3C(F)(F)F)cnc2N)CC1 [LXS196]
ALT increased, all grades (300 mg BID (RDE)): 5 (27.8) n (%) | ALT increased, grade ≥3 (300 mg BID (RDE)): 1 (5.6) n (%) | AST increased, all grades (300 mg BID (RDE)): 4 (22.2) n (%) | AST increased, grade ≥3 (300 mg BID (RDE)): 2 (11.1) n (%) | Abdominal pain upper, all grades (300 mg BID (RDE)): 3 (16.7) n (%) | Abdominal pain upper, grade ≥3 (300 mg BID (RDE)): 0 n (%) | Asthenia, all grades (300 mg BID (RDE)): 4 (22.2) n (%) | Asthenia, grade ≥3 (300 mg BID (RDE)): 0 n (%) | Blood creatinine increased, all grades (300 mg BID (RDE)): 2 (11.1) n (%) | Blood creatinine increased, grade ≥3 (300 mg BID (RDE)): 0 n (%) | Constipation, all grades (300 mg BID (RDE)): 4 (22.2) n (%) | Constipation, grade ≥3 (300 mg BID (RDE)): 0 n (%) | Decreased appetite, all grades (300 mg BID (RDE)): 2 (11.1) n (%) | Decreased appetite, grade ≥3 (300 mg BID (RDE)): 0 n (%) | Dermatitis acneiform, all grades (300 mg BID (RDE)): 3 (16.7) n (%) | Dermatitis acneiform, grade ≥3 (300 mg BID (RDE)): 0 n (%) | Diarrhoea, all grades (300 mg BID (RDE)): 11 (61.1) n (%) | Diarrhoea, grade ≥3 (300 mg BID (RDE)): 1 (5.6) n (%) | Dry skin, all grades (300 mg BID (RDE)): 4 (22.2) n (%) | Dry skin, grade ≥3 (300 mg BID (RDE)): 0 n (%) | Fatigue, all grades (300 mg BID (RDE)): 6 (33.3) n (%) | Fatigue, grade ≥3 (300 mg BID (RDE)): 0 n (%) | Hypotension, all grades (300 mg BID (RDE)): 3 (16.7) n (%) | Hypotension, grade ≥3 (300 mg BID (RDE)): 0 n (%) | Nasopharyngitis, all grades (300 mg BID (RDE)): 2 (11.1) n (%) | Nasopharyngitis, grade ≥3 (300 mg BID (RDE)): 0 n (%) | Nausea, all grades (300 mg BID (RDE)): 15 (83.3) n (%) | Nausea, grade ≥3 (300 mg BID (RDE)): 0 n (%) | Neutropenia, all grades (300 mg BID (RDE)): 0 n (%) | Neutropenia, grade ≥3 (300 mg BID (RDE)): 0 n (%) | Oedema peripheral, all grades (300 mg BID (RDE)): 5 (27.8) n (%) | Oedema peripheral, grade ≥3 (300 mg BID (RDE)): 1 (5.6) n (%) | Patients with ≥1 AE, all grades (300 mg BID (RDE)): 18 (100) n (%) | Patients with ≥1 AE, grade ≥3 (300 mg BID (RDE)): 8 (44.4) n (%) | Rash, all grades (300 mg BID (RDE)): 5 (27.8) n (%) | Rash, grade ≥3 (300 mg BID (RDE)): 0 n (%) | Vomiting, all grades (300 mg BID (RDE)): 8 (44.4) n (%) | Vomiting, grade ≥3 (300 mg BID (RDE)): 0 n (%) | ALT increased, all grades (300 mg QD): 4 (26.7) n (%) | ALT increased, grade ≥3 (300 mg QD): 1 (6.7) n (%) | AST increased, all grades (300 mg QD): 1 (6.7) n (%) | AST increased, grade ≥3 (300 mg QD): 1 (6.7) n (%) | Abdominal pain upper, all grades (300 mg QD): 2 (13.3) n (%) | Abdominal pain upper, grade ≥3 (300 mg QD): 0 n (%) | Asthenia, all grades (300 mg QD): 3 (20.0) n (%) | Asthenia, grade ≥3 (300 mg QD): 0 n (%) | Blood creatinine increased, all grades (300 mg QD): 2 (13.3) n (%) | Blood creatinine increased, grade ≥3 (300 mg QD): 0 n (%) | Constipation, all grades (300 mg QD): 4 (26.7) n (%) | Constipation, grade ≥3 (300 mg QD): 0 n (%) | Decreased appetite, all grades (300 mg QD): 0 n (%) | Decreased appetite, grade ≥3 (300 mg QD): 0 n (%) | Dermatitis acneiform, all grades (300 mg QD): 1 (6.7) n (%) | Dermatitis acneiform, grade ≥3 (300 mg QD): 0 n (%) | Diarrhoea, all grades (300 mg QD): 6 (40.0) n (%) | Diarrhoea, grade ≥3 (300 mg QD): 0 n (%) | Dry skin, all grades (300 mg QD): 1 (6.7) n (%) | Dry skin, grade ≥3 (300 mg QD): 0 n (%) | Fatigue, all grades (300 mg QD): 8 (53.3) n (%) | Fatigue, grade ≥3 (300 mg QD): 0 n (%) | Hypotension, all grades (300 mg QD): 1 (6.7) n (%) | Hypotension, grade ≥3 (300 mg QD): 0 n (%) | Nasopharyngitis, all grades (300 mg QD): 3 (20.0) n (%) | Nasopharyngitis, grade ≥3 (300 mg QD): 0 n (%) | Nausea, all grades (300 mg QD): 10 (66.7) n (%) | Nausea, grade ≥3 (300 mg QD): 0 n (%) | Neutropenia, all grades (300 mg QD): 3 (20.0) n (%) | Neutropenia, grade ≥3 (300 mg QD): 1 (6.7) n (%) | Oedema peripheral, all grades (300 mg QD): 2 (13.3) n (%) | Oedema peripheral, grade ≥3 (300 mg QD): 0 n (%) | Patients with ≥1 AE, all grades (300 mg QD): 14 (93.3) n (%) | Patients with ≥1 AE, grade ≥3 (300 mg QD): 4 (26.7) n (%) | Rash, all grades (300 mg QD): 4 (26.7) n (%) | Rash, grade ≥3 (300 mg QD): 0 n (%) | Vomiting, all grades (300 mg QD): 6 (40.0) n (%) | Vomiting, grade ≥3 (300 mg QD): 0 n (%) | ALT increased, all grades (400 mg BID): 3 (50.0) n (%) | ALT increased, grade ≥3 (400 mg BID): 1 (16.7) n (%) | AST increased, all grades (400 mg BID): 3 (50.0) n (%) | AST increased, grade ≥3 (400 mg BID): 1 (16.7) n (%) | Abdominal pain upper, all grades (400 mg BID): 0 n (%) | Abdominal pain upper, grade ≥3 (400 mg BID): 0 n (%) | Asthenia, all grades (400 mg BID): 2 (33.3) n (%) | Asthenia, grade ≥3 (400 mg BID): 0 n (%) | Blood creatinine increased, all grades (400 mg BID): 0 n (%) | Blood creatinine increased, grade ≥3 (400 mg BID): 0 n (%) | Constipation, all grades (400 mg BID): 2 (33.3) n (%) | Constipation, grade ≥3 (400 mg BID): 0 n (%) | Decreased appetite, all grades (400 mg BID): 2 (33.3) n (%) | Decreased appetite, grade ≥3 (400 mg BID): 0 n (%) | Dermatitis acneiform, all grades (400 mg BID): 1 (16.7) n (%) | Dermatitis acneiform, grade ≥3 (400 mg BID): 0 n (%) | Diarrhoea, all grades (400 mg BID): 3 (50.0) n (%) | Diarrhoea, grade ≥3 (400 mg BID): 0 n (%) | Dry skin, all grades (400 mg BID): 1 (16.7) n (%) | Dry skin, grade ≥3 (400 mg BID): 0 n (%) | Fatigue, all grades (400 mg BID): 1 (16.7) n (%) | Fatigue, grade ≥3 (400 mg BID): 0 n (%) | Hypotension, all grades (400 mg BID): 4 (66.7) n (%) | Hypotension, grade ≥3 (400 mg BID): 1 (16.7) n (%) | Nasopharyngitis, all grades (400 mg BID): 0 n (%) | Nasopharyngitis, grade ≥3 (400 mg BID): 0 n (%) | Nausea, all grades (400 mg BID): 3 (50.0) n (%) | Nausea, grade ≥3 (400 mg BID): 0 n (%) | Neutropenia, all grades (400 mg BID): 1 (16.7) n (%) | Neutropenia, grade ≥3 (400 mg BID): 0 n (%) | Oedema peripheral, all grades (400 mg BID): 1 (16.7) n (%) | Oedema peripheral, grade ≥3 (400 mg BID): 0 n (%) | Patients with ≥1 AE, all grades (400 mg BID): 6 (100) n (%) | Patients with ≥1 AE, grade ≥3 (400 mg BID): 4 (66.7) n (%) | Rash, all grades (400 mg BID): 1 (16.7) n (%) | Rash, grade ≥3 (400 mg BID): 0 n (%) | Vomiting, all grades (400 mg BID): 3 (50.0) n (%) | Vomiting, grade ≥3 (400 mg BID): 0 n (%)
